{
  "source": "the supplement of paper PMC10307832",
  "assay_in_all_cases": "relative viability (nuclei count vs DMSO), 5 days (fraction); higher = more cells survive",
  "key": {"[1]": {"tested_on": "ABC-1", "method_in_brief": "(§1)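 Relative viability is defined as nuclei in treated wells over nuclei in vehicle wells. Duplicate plates were run and medians reported. Lung cancer cell lines in 1536-well plates were dosed by pin tool one day after seeding, with one drug or with a fixed anchor-drug dose plus five library-drug doses (not always all listed) in √10 steps, and nuclei were counted after 5 days.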"}, "[2]": {"tested_on": "ChaGo-K-1", "method_in_brief": "as §1"}, "[3]": {"tested_on": "HCC-366", "method_in_brief": "as §1"}, "[4]": {"tested_on": "HCC-78", "method_in_brief": "as §1"}, "[5]": {"tested_on": "LC-2-ad", "method_in_brief": "as §1"}, "[6]": {"tested_on": "LOU-NH91", "method_in_brief": "as §1"}, "[7]": {"tested_on": "LU99A", "method_in_brief": "as §1"}, "[8]": {"tested_on": "NCI-H1395", "method_in_brief": "as §1"}, "[9]": {"tested_on": "NCI-H1651", "method_in_brief": "as §1"}, "[10]": {"tested_on": "NCI-H1755", "method_in_brief": "as §1"}, "[11]": {"tested_on": "NCI-H1793", "method_in_brief": "as §1"}, "[12]": {"tested_on": "NCI-H1944", "method_in_brief": "as §1"}, "[13]": {"tested_on": "NCI-H2087", "method_in_brief": "as §1"}, "[14]": {"tested_on": "NCI-H2170", "method_in_brief": "as §1"}, "[15]": {"tested_on": "NCI-H2405", "method_in_brief": "as §1"}, "[16]": {"tested_on": "NCI-H3122", "method_in_brief": "as §1"}, "[17]": {"tested_on": "NCI-H460", "method_in_brief": "as §1"}, "[18]": {"tested_on": "PC-3 [JPC-3]", "method_in_brief": "as §1"}, "[19]": {"tested_on": "RERF-LC-KJ", "method_in_brief": "as §1"}, "[20]": {"tested_on": "UMC-11", "method_in_brief": "as §1"}},
  "data": [
    {"compound": "COc1cc2nccc(Oc3ccc(NC(=O)Nc4cc(C)on4)c(Cl)c3)c2cc1OC", "note": "[Tivozanib] + Nc1ncn([C@H]2C[C@H](O)[C@@H](CO)O2)c(=O)n1 [Decitabine] (partner 2 µM)", "values": [
      {"measurement": "relative viability", "setting": "[1]; first compound 0.005 µM", "value": 0.986},
      {"measurement": "relative viability", "setting": "[1]; first compound 0.01581 µM", "value": 1.01},
      {"measurement": "relative viability", "setting": "[1]; first compound 0.05 µM", "value": 1.15},
      {"measurement": "relative viability", "setting": "[1]; first compound 0.1581 µM", "value": 0.868},
      {"measurement": "relative viability", "setting": "[1]; first compound 0.5 µM", "value": 0.694},
      {"measurement": "relative viability", "setting": "[2]; first compound 0.005 µM", "value": 0.458},
      {"measurement": "relative viability", "setting": "[2]; first compound 0.01581 µM", "value": 0.498},
      {"measurement": "relative viability", "setting": "[2]; first compound 0.05 µM", "value": 0.515},
      {"measurement": "relative viability", "setting": "[2]; first compound 0.1581 µM", "value": 0.543},
      {"measurement": "relative viability", "setting": "[2]; first compound 0.5 µM", "value": 0.489},
      {"measurement": "relative viability", "setting": "[3]; first compound 0.005 µM", "value": 0.334},
      {"measurement": "relative viability", "setting": "[3]; first compound 0.01581 µM", "value": 0.306},
      {"measurement": "relative viability", "setting": "[3]; first compound 0.05 µM", "value": 0.346},
      {"measurement": "relative viability", "setting": "[3]; first compound 0.1581 µM", "value": 0.349},
      {"measurement": "relative viability", "setting": "[3]; first compound 0.5 µM", "value": 0.378},
      {"measurement": "relative viability", "setting": "[4]; first compound 0.005 µM", "value": 0.685},
      {"measurement": "relative viability", "setting": "[4]; first compound 0.01581 µM", "value": 0.807},
      {"measurement": "relative viability", "setting": "[4]; first compound 0.05 µM", "value": 0.733},
      {"measurement": "relative viability", "setting": "[4]; first compound 0.1581 µM", "value": 0.651},
      {"measurement": "relative viability", "setting": "[4]; first compound 0.5 µM", "value": 0.667},
      {"measurement": "relative viability", "setting": "[5]; first compound 0.005 µM", "value": 0.835},
      {"measurement": "relative viability", "setting": "[5]; first compound 0.01581 µM", "value": 0.681},
      {"measurement": "relative viability", "setting": "[5]; first compound 0.05 µM", "value": 0.77},
      {"measurement": "relative viability", "setting": "[5]; first compound 0.1581 µM", "value": 0.58},
      {"measurement": "relative viability", "setting": "[5]; first compound 0.5 µM", "value": 0.57},
      {"measurement": "relative viability", "setting": "[6]; first compound 0.005 µM", "value": 0.772},
      {"measurement": "relative viability", "setting": "[6]; first compound 0.01581 µM", "value": 0.8},
      {"measurement": "relative viability", "setting": "[6]; first compound 0.05 µM", "value": 0.808},
      {"measurement": "relative viability", "setting": "[6]; first compound 0.1581 µM", "value": 0.752},
      {"measurement": "relative viability", "setting": "[6]; first compound 0.5 µM", "value": 0.796},
      {"measurement": "relative viability", "setting": "[7]; first compound 0.005 µM", "value": 1.04},
      {"measurement": "relative viability", "setting": "[7]; first compound 0.01581 µM", "value": 0.769},
      {"measurement": "relative viability", "setting": "[7]; first compound 0.05 µM", "value": 0.894},
      {"measurement": "relative viability", "setting": "[7]; first compound 0.1581 µM", "value": 0.679},
      {"measurement": "relative viability", "setting": "[7]; first compound 0.5 µM", "value": 0.758},
      {"measurement": "relative viability", "setting": "[8]; first compound 0.005 µM", "value": 0.671},
      {"measurement": "relative viability", "setting": "[8]; first compound 0.01581 µM", "value": 0.672},
      {"measurement": "relative viability", "setting": "[8]; first compound 0.05 µM", "value": 0.732},
      {"measurement": "relative viability", "setting": "[8]; first compound 0.1581 µM", "value": 0.713},
      {"measurement": "relative viability", "setting": "[8]; first compound 0.5 µM", "value": 0.617},
      {"measurement": "relative viability", "setting": "[9]; first compound 0.005 µM", "value": 0.572},
      {"measurement": "relative viability", "setting": "[9]; first compound 0.01581 µM", "value": 0.551},
      {"measurement": "relative viability", "setting": "[9]; first compound 0.05 µM", "value": 0.675},
      {"measurement": "relative viability", "setting": "[9]; first compound 0.1581 µM", "value": 0.438},
      {"measurement": "relative viability", "setting": "[9]; first compound 0.5 µM", "value": 0.524},
      {"measurement": "relative viability", "setting": "[10]; first compound 0.005 µM", "value": 0.716},
      {"measurement": "relative viability", "setting": "[10]; first compound 0.01581 µM", "value": 0.74},
      {"measurement": "relative viability", "setting": "[10]; first compound 0.05 µM", "value": 0.688},
      {"measurement": "relative viability", "setting": "[10]; first compound 0.1581 µM", "value": 0.744},
      {"measurement": "relative viability", "setting": "[10]; first compound 0.5 µM", "value": 0.704},
      {"measurement": "relative viability", "setting": "[11]; first compound 0.005 µM", "value": 0.474},
      {"measurement": "relative viability", "setting": "[11]; first compound 0.01581 µM", "value": 0.518},
      {"measurement": "relative viability", "setting": "[11]; first compound 0.05 µM", "value": 0.562},
      {"measurement": "relative viability", "setting": "[11]; first compound 0.5 µM", "value": 0.481},
      {"measurement": "relative viability", "setting": "[12]; first compound 0.005 µM", "value": 0.402},
      {"measurement": "relative viability", "setting": "[12]; first compound 0.01581 µM", "value": 0.473},
      {"measurement": "relative viability", "setting": "[12]; first compound 0.05 µM", "value": 0.447},
      {"measurement": "relative viability", "setting": "[12]; first compound 0.1581 µM", "value": 0.459},
      {"measurement": "relative viability", "setting": "[12]; first compound 0.5 µM", "value": 0.416},
      {"measurement": "relative viability", "setting": "[13]; first compound 0.005 µM", "value": 0.275},
      {"measurement": "relative viability", "setting": "[13]; first compound 0.01581 µM", "value": 0.249},
      {"measurement": "relative viability", "setting": "[13]; first compound 0.05 µM", "value": 0.352},
      {"measurement": "relative viability", "setting": "[13]; first compound 0.1581 µM", "value": 0.254},
      {"measurement": "relative viability", "setting": "[13]; first compound 0.5 µM", "value": 0.348},
      {"measurement": "relative viability", "setting": "[14]; first compound 0.005 µM", "value": 0.463},
      {"measurement": "relative viability", "setting": "[14]; first compound 0.01581 µM", "value": 0.495},
      {"measurement": "relative viability", "setting": "[14]; first compound 0.05 µM", "value": 0.489},
      {"measurement": "relative viability", "setting": "[14]; first compound 0.5 µM", "value": 0.458},
      {"measurement": "relative viability", "setting": "[15]; first compound 0.005 µM", "value": 0.676},
      {"measurement": "relative viability", "setting": "[15]; first compound 0.01581 µM", "value": 0.771},
      {"measurement": "relative viability", "setting": "[15]; first compound 0.05 µM", "value": 0.756},
      {"measurement": "relative viability", "setting": "[15]; first compound 0.1581 µM", "value": 0.706},
      {"measurement": "relative viability", "setting": "[15]; first compound 0.5 µM", "value": 0.591},
      {"measurement": "relative viability", "setting": "[16]; first compound 0.005 µM", "value": 0.462},
      {"measurement": "relative viability", "setting": "[16]; first compound 0.01581 µM", "value": 0.427},
      {"measurement": "relative viability", "setting": "[16]; first compound 0.05 µM", "value": 0.429},
      {"measurement": "relative viability", "setting": "[16]; first compound 0.1581 µM", "value": 0.401},
      {"measurement": "relative viability", "setting": "[16]; first compound 0.5 µM", "value": 0.563},
      {"measurement": "relative viability", "setting": "[17]; first compound 0.005 µM", "value": 0.449},
      {"measurement": "relative viability", "setting": "[17]; first compound 0.01581 µM", "value": 0.468},
      {"measurement": "relative viability", "setting": "[17]; first compound 0.05 µM", "value": 0.48},
      {"measurement": "relative viability", "setting": "[17]; first compound 0.1581 µM", "value": 0.62},
      {"measurement": "relative viability", "setting": "[17]; first compound 0.5 µM", "value": 0.482},
      {"measurement": "relative viability", "setting": "[18]; first compound 0.01581 µM", "value": 0.843},
      {"measurement": "relative viability", "setting": "[18]; first compound 0.05 µM", "value": 0.805},
      {"measurement": "relative viability", "setting": "[18]; first compound 0.1581 µM", "value": 0.815},
      {"measurement": "relative viability", "setting": "[18]; first compound 0.5 µM", "value": 0.831},
      {"measurement": "relative viability", "setting": "[19]; first compound 0.005 µM", "value": 0.585},
      {"measurement": "relative viability", "setting": "[19]; first compound 0.01581 µM", "value": 0.646},
      {"measurement": "relative viability", "setting": "[19]; first compound 0.05 µM", "value": 0.657},
      {"measurement": "relative viability", "setting": "[19]; first compound 0.1581 µM", "value": 0.637},
      {"measurement": "relative viability", "setting": "[19]; first compound 0.5 µM", "value": 0.723},
      {"measurement": "relative viability", "setting": "[20]; first compound 0.005 µM", "value": 0.59},
      {"measurement": "relative viability", "setting": "[20]; first compound 0.01581 µM", "value": 0.595},
      {"measurement": "relative viability", "setting": "[20]; first compound 0.05 µM", "value": 0.657},
      {"measurement": "relative viability", "setting": "[20]; first compound 0.1581 µM", "value": 0.478},
      {"measurement": "relative viability", "setting": "[20]; first compound 0.5 µM", "value": 0.425}
    ]}
  ]
}
